Laboratory results taken from patent publication US6864286B2, “Inhibitors of the EGF-receptor tyrosine kinase and methods for their use” (Parker Hughes Institute, priority 1998, dated 2005).

How the values were obtained:
[1] = test system: MDA-MB-231 cells; assay: MTT cytotoxicity assay, MDA-MB-231; assay type: cell-based; settings: Homo sapiens, 36 hours, read-out: Cancer Cell Cytotoxicity IC50 MDA-MB-231
Description: In order to determine the cytotoxic activity of LFM and its analogs against breast cancer cells, cells in alpha-MEM supplemented with 10% (v/v) fetal calf serum were treated with various concentrations of the compounds for 24 hours at 37° C., washed twice in alpha-MEM, and then used in either MTT assays or in vitro invasion assays, as described hereinafter.
The cytotoxicity of various compounds against human breast cancer cell lines was analyzed using the MTT (3-[4,5-dimethylthiazol-2-yl]-2,5-diphenyl tetrazolium bromide) assay (Boehringer Mannheim Corp., Indianapolis, Ind.). Uckun F. M., et al. Clin. Cancer Res. 1998, 4, 901-912. Exponentially growing breast cancer cells were seeded into a 96-well plate at a density of 2.5×10^4 cells/well and incubated for 36 hours at 37° C. prior to drug exposure. On the day of treatment, culture medium was carefully aspirated from the wells and replaced with fresh medium containing the LFM analogs at concentrations ranging from 2 to 250 μM. Triplicate wells were used for each treatment. The cells were incubated with the various compounds for 36 hours at 37° C. in a humidified 5% CO2 atmosphere. To each well, 10 μl of MTT (0.5 mg/ml final concentration) was added and the plates were incubated at 37° C. for 4 hours to allow MTT to form formazan crystals by reacting with metabolically active cells. The formazan crystals were solubilized overnight at 37° C. in a solution containing 10% SDS in 0.01 M HCl. The absorbence of each well was measured in a microplate reader (Labsystems) at 540 nm and a reference wavelength of 690 nm.
To translate the absorbance A540 values into the number of live cells in each well, the A540 values were compared to those on standard A540-versus-cell number curves generated for each cell line. The percent survival was calculated using the formula: % survival=Live cell number[test]/Live cell number [control]×100. The IC50 values were calculated by non-linear regression analysis using an Graphpad Prism software version 2.0 (Graphpad Software, Inc., San Diego, Calif.).

[2] = biological target: T1, BTK (Homo sapiens, UniProt Q06187); assay: Cell-free BTK immune complex kinase assay; assay type: biochemical; settings: for effect on enzymatic activity of BTK: at concentrations as high as 350 μM
T1 construct: made in house; host or cells: Sf21 insect cells (baculovirus)
Description: (§1) Immunoprecipitations, immune-complex protein kinase assays, and immunoblotting using the ECL chemiluminescence detection system (Amersham Life Sciences) were conducted as described previously (Vassilev, A., et al. J. Biol. Chem. 1998, in press; Goodman, P. A., et al. J. Biol. Chem. 1998, 273, 17742; Mahajan, S., et al. Mol. Cell. Biol. 1995, 15, 5304; Uckun, F. M., et al. Science 1996, 22, 1096).

[3] = biological target: T2, JAK3 (Homo sapiens, UniProt P52333); assay: Cell-free JAK3 immune complex kinase assay; assay type: biochemical; settings: for effect on enzymatic activity of JAK3: at concentrations as high as 350 μM
T2 construct: made in house; host or cells: Sf21 insect cells (baculovirus)
T2 sequence (P52333 1-1124): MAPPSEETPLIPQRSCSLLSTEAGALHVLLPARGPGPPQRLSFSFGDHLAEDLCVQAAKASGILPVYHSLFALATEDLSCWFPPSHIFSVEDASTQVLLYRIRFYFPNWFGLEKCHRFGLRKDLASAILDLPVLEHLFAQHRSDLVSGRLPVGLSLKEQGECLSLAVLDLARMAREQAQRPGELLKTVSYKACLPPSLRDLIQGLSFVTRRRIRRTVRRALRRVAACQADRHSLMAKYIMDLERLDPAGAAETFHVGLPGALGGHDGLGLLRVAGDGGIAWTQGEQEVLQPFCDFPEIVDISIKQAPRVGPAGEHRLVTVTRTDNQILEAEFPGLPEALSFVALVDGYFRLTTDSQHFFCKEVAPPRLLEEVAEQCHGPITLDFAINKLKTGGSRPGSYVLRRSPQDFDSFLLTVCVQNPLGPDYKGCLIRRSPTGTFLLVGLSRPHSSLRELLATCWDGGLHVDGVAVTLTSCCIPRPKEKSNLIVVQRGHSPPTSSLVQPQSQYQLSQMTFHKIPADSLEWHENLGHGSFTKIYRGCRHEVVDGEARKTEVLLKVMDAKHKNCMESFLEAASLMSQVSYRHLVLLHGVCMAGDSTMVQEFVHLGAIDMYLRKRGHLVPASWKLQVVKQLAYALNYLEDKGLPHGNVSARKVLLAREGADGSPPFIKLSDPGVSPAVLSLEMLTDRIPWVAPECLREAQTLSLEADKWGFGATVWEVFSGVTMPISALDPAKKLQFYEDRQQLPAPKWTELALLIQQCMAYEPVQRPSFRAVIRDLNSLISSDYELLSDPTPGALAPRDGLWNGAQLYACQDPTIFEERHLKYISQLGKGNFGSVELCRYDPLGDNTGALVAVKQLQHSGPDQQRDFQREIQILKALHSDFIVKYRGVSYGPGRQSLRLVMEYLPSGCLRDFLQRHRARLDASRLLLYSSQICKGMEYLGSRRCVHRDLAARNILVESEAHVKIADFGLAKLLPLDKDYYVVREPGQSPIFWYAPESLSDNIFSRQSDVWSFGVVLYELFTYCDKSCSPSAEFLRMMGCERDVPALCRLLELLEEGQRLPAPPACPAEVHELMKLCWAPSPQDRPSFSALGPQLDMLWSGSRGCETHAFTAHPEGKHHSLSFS
Description: as §1

T1 sequence (Q06187 whole entry, species assumed): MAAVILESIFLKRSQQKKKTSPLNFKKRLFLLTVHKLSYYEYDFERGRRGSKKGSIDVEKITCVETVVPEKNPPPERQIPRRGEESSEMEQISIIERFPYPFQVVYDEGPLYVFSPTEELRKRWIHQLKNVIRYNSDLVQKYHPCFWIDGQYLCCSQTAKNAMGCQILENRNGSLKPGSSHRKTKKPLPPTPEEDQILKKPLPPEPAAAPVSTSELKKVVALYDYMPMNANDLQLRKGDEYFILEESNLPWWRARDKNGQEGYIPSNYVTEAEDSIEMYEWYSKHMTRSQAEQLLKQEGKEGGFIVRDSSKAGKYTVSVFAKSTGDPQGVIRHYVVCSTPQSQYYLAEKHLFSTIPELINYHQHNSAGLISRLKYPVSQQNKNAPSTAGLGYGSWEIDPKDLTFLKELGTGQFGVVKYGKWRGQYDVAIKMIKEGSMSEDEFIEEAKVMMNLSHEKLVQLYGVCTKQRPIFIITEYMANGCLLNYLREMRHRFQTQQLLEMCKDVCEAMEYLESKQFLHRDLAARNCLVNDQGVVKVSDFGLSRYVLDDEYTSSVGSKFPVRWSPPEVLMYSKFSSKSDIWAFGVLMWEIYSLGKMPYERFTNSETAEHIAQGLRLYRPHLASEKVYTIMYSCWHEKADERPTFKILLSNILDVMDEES

SMILES	IC50 [1] [µM]	effect on enzymatic activity of BTK [2]	effect on enzymatic activity of JAK3 [3]	IC50 ([2]; BTK, cell-free, read-out: Inhibition IC50) [µM]	IC50 ([3]; JAK3, cell-free, read-out: Inhibition IC50) [µM]
CC(O)=C(C#N)C(=O)Nc1ccc(C(F)(F)F)cc1 [LFM, α-Cyano-β-hydroxy-β-methyl-N-[4-(trifluoromethyl)phenyl]-propenamide, reference compound]	199	did not affect the enzymatic activity	did not affect the enzymatic activity	–	–
C/C(O)=C(\C#N)C(=O)Nc1ccc(OC(F)(F)F)cc1 [LFM-A12, α-Cyano-β-hydroxy-β-methyl-N-[4-(trifluoromethoxy)phenyl]-propenamide]	53.4	did not affect the enzymatic activity	did not affect the enzymatic activity	> 175	> 350
